Laboratory results: the supplement of paper PMC10307832

Key:
Assay in all cases: relative viability (nuclei count vs DMSO), 5 days (fraction); higher = more cells survive
NCI-H2342 = system: NCI-H2342
Method in brief: (§1)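 Relative viability is defined as nuclei in treated wells over nuclei in vehicle wells. Duplicate plates were run and medians reported. Lung cancer cell lines in 1536-well plates were dosed by pin tool one day after seeding, with one drug or with a fixed anchor-drug dose plus five library-drug doses (not always all listed) in √10 steps, and nuclei were counted after 5 days.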

HCC-78 = system: HCC-78
Method in brief: as §1

NCI-H1755 = system: NCI-H1755
Method in brief: as §1

SK-LU-1 = system: SK-LU-1
Method in brief: as §1

UMC-11 = system: UMC-11
Method in brief: as §1

HCC-366 = system: HCC-366
Method in brief: as §1

LCLC-97TM1 = system: LCLC-97TM1
Method in brief: as §1

NCI-H1792 = system: NCI-H1792
Method in brief: as §1

NCI-H358 = system: NCI-H358
Method in brief: as §1

NCI-H2170 = system: NCI-H2170
Method in brief: as §1

NCI-H460 = system: NCI-H460
Method in brief: as §1

LXF-289 = system: LXF-289
Method in brief: as §1

EPLC-272H = system: EPLC-272H
Method in brief: as §1

NCI-H2085 = system: NCI-H2085
Method in brief: as §1

NCI-H1915 = system: NCI-H1915
Method in brief: as §1

LC-2-ad = system: LC-2-ad
Method in brief: as §1

COR-L 105 = system: COR-L 105
Method in brief: as §1

NCI-H1975 = system: NCI-H1975
Method in brief: as §1

A-427 = system: A-427
Method in brief: as §1

SW 900 = system: SW 900
Method in brief: as §1

NCI-H1793 = system: NCI-H1793
Method in brief: as §1

LU99A = system: LU99A
Method in brief: as §1

HOP-62 = system: HOP-62
Method in brief: as §1

NCI-H1944 = system: NCI-H1944
Method in brief: as §1

## Clc1ccc(Nc2nnc(Cc3ccncc3)c3ccccc23)cc1 [Vatalanib] + Cc1nc(Nc2ncc(C(=O)Nc3c(C)cccc3Cl)s2)cc(N2CCN(CCO)CC2)n1 [Dasatinib] (partner 0.075 µM)
NCI-H2342; first compound 0.04 µM
  relative viability: 0.292
NCI-H2342; first compound 0.1265 µM
  relative viability: 0.324
NCI-H2342; first compound 0.4 µM
  relative viability: 0.278
NCI-H2342; first compound 1.265 µM
  relative viability: 0.312
NCI-H2342; first compound 4 µM
  relative viability: 0.295
HCC-78; first compound 0.04 µM
  relative viability: 0.368
HCC-78; first compound 0.1265 µM
  relative viability: 0.325
HCC-78; first compound 0.4 µM
  relative viability: 0.333
HCC-78; first compound 1.265 µM
  relative viability: 0.368
HCC-78; first compound 4 µM
  relative viability: 0.383
NCI-H1755; first compound 0.04 µM
  relative viability: 0.496
NCI-H1755; first compound 0.1265 µM
  relative viability: 0.418
NCI-H1755; first compound 0.4 µM
  relative viability: 0.514
NCI-H1755; first compound 1.265 µM
  relative viability: 0.413
NCI-H1755; first compound 4 µM
  relative viability: 0.381
SK-LU-1; first compound 0.04 µM
  relative viability: 0.182
SK-LU-1; first compound 0.1265 µM
  relative viability: 0.188
SK-LU-1; first compound 0.4 µM
  relative viability: 0.208
SK-LU-1; first compound 1.265 µM
  relative viability: 0.184
SK-LU-1; first compound 4 µM
  relative viability: 0.178
UMC-11; first compound 0.04 µM
  relative viability: 0.422
UMC-11; first compound 0.1265 µM
  relative viability: 0.496
UMC-11; first compound 0.4 µM
  relative viability: 0.444
UMC-11; first compound 1.265 µM
  relative viability: 0.442
UMC-11; first compound 4 µM
  relative viability: 0.45
HCC-366; first compound 0.04 µM
  relative viability: 0.829
HCC-366; first compound 0.1265 µM
  relative viability: 0.573
HCC-366; first compound 0.4 µM
  relative viability: 0.618
HCC-366; first compound 1.265 µM
  relative viability: 0.586
HCC-366; first compound 4 µM
  relative viability: 0.503
LCLC-97TM1; first compound 0.04 µM
  relative viability: 0.994
LCLC-97TM1; first compound 0.1265 µM
  relative viability: 0.621
LCLC-97TM1; first compound 0.4 µM
  relative viability: 0.839
LCLC-97TM1; first compound 1.265 µM
  relative viability: 0.775
LCLC-97TM1; first compound 4 µM
  relative viability: 0.871
NCI-H1792; first compound 0.04 µM
  relative viability: 0.724
NCI-H1792; first compound 0.1265 µM
  relative viability: 0.814
NCI-H1792; first compound 0.4 µM
  relative viability: 0.758
NCI-H1792; first compound 1.265 µM
  relative viability: 0.811
NCI-H1792; first compound 4 µM
  relative viability: 0.759
NCI-H358; first compound 0.04 µM
  relative viability: 0.164
NCI-H358; first compound 0.1265 µM
  relative viability: 0.194
NCI-H358; first compound 0.4 µM
  relative viability: 0.165
NCI-H358; first compound 1.265 µM
  relative viability: 0.162
NCI-H358; first compound 4 µM
  relative viability: 0.169
NCI-H2170; first compound 0.04 µM
  relative viability: 0.521
NCI-H2170; first compound 0.1265 µM
  relative viability: 0.486
NCI-H2170; first compound 0.4 µM
  relative viability: 0.556
NCI-H2170; first compound 1.265 µM
  relative viability: 0.483
NCI-H2170; first compound 4 µM
  relative viability: 0.507
NCI-H460; first compound 0.04 µM
  relative viability: 0.558
NCI-H460; first compound 0.1265 µM
  relative viability: 0.498
NCI-H460; first compound 0.4 µM
  relative viability: 0.54
NCI-H460; first compound 1.265 µM
  relative viability: 0.351
NCI-H460; first compound 4 µM
  relative viability: 0.409
LXF-289; first compound 0.04 µM
  relative viability: 0.233
LXF-289; first compound 0.1265 µM
  relative viability: 0.269
LXF-289; first compound 0.4 µM
  relative viability: 0.336
LXF-289; first compound 1.265 µM
  relative viability: 0.283
LXF-289; first compound 4 µM
  relative viability: 0.204
EPLC-272H; first compound 0.04 µM
  relative viability: 0.441
EPLC-272H; first compound 0.1265 µM
  relative viability: 0.347
EPLC-272H; first compound 0.4 µM
  relative viability: 0.449
EPLC-272H; first compound 1.265 µM
  relative viability: 0.36
EPLC-272H; first compound 4 µM
  relative viability: 0.481
NCI-H2085; first compound 0.04 µM
  relative viability: 0.218
NCI-H2085; first compound 0.1265 µM
  relative viability: 0.226
NCI-H2085; first compound 0.4 µM
  relative viability: 0.277
NCI-H2085; first compound 1.265 µM
  relative viability: 0.188
NCI-H2085; first compound 4 µM
  relative viability: 0.258
NCI-H1915; first compound 0.04 µM
  relative viability: 0.322
NCI-H1915; first compound 0.1265 µM
  relative viability: 0.321
NCI-H1915; first compound 0.4 µM
  relative viability: 0.339
NCI-H1915; first compound 1.265 µM
  relative viability: 0.279
NCI-H1915; first compound 4 µM
  relative viability: 0.349
LC-2-ad; first compound 0.04 µM
  relative viability: 0.739
LC-2-ad; first compound 0.1265 µM
  relative viability: 0.492
LC-2-ad; first compound 1.265 µM
  relative viability: 0.507
LC-2-ad; first compound 4 µM
  relative viability: 0.536
COR-L 105; first compound 0.04 µM
  relative viability: 0.294
COR-L 105; first compound 0.1265 µM
  relative viability: 0.32
COR-L 105; first compound 0.4 µM
  relative viability: 0.404
COR-L 105; first compound 1.265 µM
  relative viability: 0.316
COR-L 105; first compound 4 µM
  relative viability: 0.326
NCI-H1975; first compound 0.04 µM
  relative viability: 0.356
NCI-H1975; first compound 0.1265 µM
  relative viability: 0.344
NCI-H1975; first compound 0.4 µM
  relative viability: 0.434
NCI-H1975; first compound 1.265 µM
  relative viability: 0.282
NCI-H1975; first compound 4 µM
  relative viability: 0.287
A-427; first compound 0.04 µM
  relative viability: 0.784
A-427; first compound 0.1265 µM
  relative viability: 0.642
A-427; first compound 0.4 µM
  relative viability: 0.638
A-427; first compound 1.265 µM
  relative viability: 0.662
A-427; first compound 4 µM
  relative viability: 0.732
SW 900; first compound 0.1265 µM
  relative viability: 0.535
SW 900; first compound 0.4 µM
  relative viability: 0.599
SW 900; first compound 1.265 µM
  relative viability: 0.474
SW 900; first compound 4 µM
  relative viability: 0.417
NCI-H1793; first compound 0.04 µM
  relative viability: 0.379
NCI-H1793; first compound 0.1265 µM
  relative viability: 0.377
NCI-H1793; first compound 0.4 µM
  relative viability: 0.458
NCI-H1793; first compound 1.265 µM
  relative viability: 0.349
NCI-H1793; first compound 4 µM
  relative viability: 0.4
LU99A; first compound 0.04 µM
  relative viability: 0.499
LU99A; first compound 0.1265 µM
  relative viability: 0.58
LU99A; first compound 0.4 µM
  relative viability: 0.685
LU99A; first compound 1.265 µM
  relative viability: 0.44
LU99A; first compound 4 µM
  relative viability: 0.583
HOP-62; first compound 0.04 µM
  relative viability: 0.786
HOP-62; first compound 0.1265 µM
  relative viability: 0.563
HOP-62; first compound 0.4 µM
  relative viability: 0.712
HOP-62; first compound 1.265 µM
  relative viability: 0.635
HOP-62; first compound 4 µM
  relative viability: 0.602
NCI-H1944; first compound 0.04 µM
  relative viability: 0.227
NCI-H1944; first compound 0.1265 µM
  relative viability: 0.228
NCI-H1944; first compound 0.4 µM
  relative viability: 0.254
NCI-H1944; first compound 1.265 µM
  relative viability: 0.23
NCI-H1944; first compound 4 µM
  relative viability: 0.228
